Experimental data reported in patent US9505749B2, “Quinazolinone compounds and derivatives thereof” (AMGEN INC., priority 2012, dated 2016).
Where two headings read alike, the source gives them in different places.

Experiments:
[1] = system: total β-catenin in SW480 colorectal cells; assay: Total β-catenin MSD 96-well plate assay for SW480 cells; conditions: Homo sapiens, SW480, read-out: SW480-Total beta-catenin (TBC) IC50 IP
[2] = target: 6×HIS-tankyrase1 (1091-1325) (Homo sapiens (Human), UniProt O95271); assay: Tankyrase 1 biochemical assay (AlphaLisa, PARsylation); conditions: 400 nM NAD, 60 minutes at RT; read-out: TNKS1 IC50
Chain of 6×HIS-tankyrase1 (1091-1325) (O95271 1091-1325): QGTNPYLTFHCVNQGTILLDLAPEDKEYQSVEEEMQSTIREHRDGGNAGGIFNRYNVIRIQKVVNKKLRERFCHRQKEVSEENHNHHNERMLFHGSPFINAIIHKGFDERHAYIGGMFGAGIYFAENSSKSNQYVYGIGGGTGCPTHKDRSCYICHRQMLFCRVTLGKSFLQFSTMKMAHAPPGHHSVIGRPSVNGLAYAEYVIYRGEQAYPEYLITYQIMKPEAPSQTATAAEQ

[3] = target: 6×HIS-tankyrase 2 (946-1162) (Homo sapiens (Human), UniProt Q9H2K2); assay: Tankyrase 2 biochemical assay (AlphaLisa, PARsylation); conditions: 250 nM NAD; read-out: TNKS2 IC50
Chain of 6×HIS-tankyrase 2 (946-1162) (Q9H2K2 946-1162): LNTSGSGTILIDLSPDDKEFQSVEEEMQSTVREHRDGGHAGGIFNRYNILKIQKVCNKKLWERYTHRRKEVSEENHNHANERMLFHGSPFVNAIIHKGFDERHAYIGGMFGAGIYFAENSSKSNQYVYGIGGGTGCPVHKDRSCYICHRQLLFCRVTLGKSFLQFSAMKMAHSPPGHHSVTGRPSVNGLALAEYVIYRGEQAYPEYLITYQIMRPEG

[4] = system: Axin2 accumulation in SW480 cells; assay: Axin2 384 immunofluorescence assay; type: cell-based; conditions: Homo sapiens, read-out: Axin2 384 IF EC50
PARP2 = PARP2 (Homo sapiens (Human), UniProt Q9UGN5); assay: PARP2 biochemical assay (BPS kit)
Chain of PARP2 (Q9UGN5 whole entry): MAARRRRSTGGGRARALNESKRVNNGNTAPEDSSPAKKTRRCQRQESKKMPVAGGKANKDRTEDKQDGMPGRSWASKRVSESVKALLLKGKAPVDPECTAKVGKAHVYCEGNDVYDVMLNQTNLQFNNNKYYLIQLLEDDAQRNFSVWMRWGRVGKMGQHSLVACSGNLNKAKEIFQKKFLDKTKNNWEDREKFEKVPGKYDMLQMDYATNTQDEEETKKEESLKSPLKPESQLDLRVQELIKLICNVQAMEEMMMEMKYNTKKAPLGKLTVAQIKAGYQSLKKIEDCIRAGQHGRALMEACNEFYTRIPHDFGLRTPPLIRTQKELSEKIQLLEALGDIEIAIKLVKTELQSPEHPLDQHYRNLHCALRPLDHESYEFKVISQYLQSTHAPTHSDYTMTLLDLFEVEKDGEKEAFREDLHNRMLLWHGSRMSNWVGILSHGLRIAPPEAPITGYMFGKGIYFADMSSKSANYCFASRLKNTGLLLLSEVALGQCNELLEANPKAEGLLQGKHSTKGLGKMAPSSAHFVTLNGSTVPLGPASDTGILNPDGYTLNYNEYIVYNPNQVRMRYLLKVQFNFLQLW

PARP1 = PARP1 (Homo sapiens (Human), UniProt P09874); assay: PARP1 biochemical assay (Trevigen kit)
Chain of PARP1 (P09874 whole entry): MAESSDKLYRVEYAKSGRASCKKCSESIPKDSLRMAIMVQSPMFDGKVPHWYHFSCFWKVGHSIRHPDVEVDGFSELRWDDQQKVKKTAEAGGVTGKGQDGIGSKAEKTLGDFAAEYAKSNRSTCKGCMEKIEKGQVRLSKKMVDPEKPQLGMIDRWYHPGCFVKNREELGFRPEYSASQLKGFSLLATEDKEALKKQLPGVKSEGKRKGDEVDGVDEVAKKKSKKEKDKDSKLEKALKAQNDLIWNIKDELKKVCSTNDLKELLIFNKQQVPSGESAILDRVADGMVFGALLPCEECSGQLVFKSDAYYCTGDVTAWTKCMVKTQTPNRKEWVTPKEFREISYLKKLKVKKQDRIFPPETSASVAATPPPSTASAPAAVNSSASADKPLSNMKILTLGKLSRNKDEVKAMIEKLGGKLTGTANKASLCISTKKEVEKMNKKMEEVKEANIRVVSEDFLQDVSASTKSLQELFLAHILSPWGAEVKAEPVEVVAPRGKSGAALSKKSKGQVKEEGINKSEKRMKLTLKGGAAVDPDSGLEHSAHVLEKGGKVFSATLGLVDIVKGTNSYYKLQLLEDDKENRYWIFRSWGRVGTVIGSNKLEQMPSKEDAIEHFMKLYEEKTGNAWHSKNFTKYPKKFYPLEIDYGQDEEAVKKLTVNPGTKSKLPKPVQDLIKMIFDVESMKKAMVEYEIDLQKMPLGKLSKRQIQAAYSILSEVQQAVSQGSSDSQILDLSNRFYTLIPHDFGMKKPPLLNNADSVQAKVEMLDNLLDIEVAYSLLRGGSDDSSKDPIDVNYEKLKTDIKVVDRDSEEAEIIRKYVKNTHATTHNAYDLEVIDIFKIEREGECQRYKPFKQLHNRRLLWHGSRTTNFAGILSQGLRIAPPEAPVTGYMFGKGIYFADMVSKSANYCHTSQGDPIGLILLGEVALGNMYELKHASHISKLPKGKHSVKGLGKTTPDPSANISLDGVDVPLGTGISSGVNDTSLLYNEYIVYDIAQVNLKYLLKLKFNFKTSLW
From the text: PARP1 biochemical assay was purchased as a kit from Trevigen (cat.#4676-096-K) and used per manufacturers recommendations.

Row | IC50 [1] [nM] | IC50 [2] [nM] | IC50 [3] [nM] | EC50 ([4]; SW480 cells, 24 hours) [nM] | IC50 (PARP2) [nM] | IC50 (PARP1) [nM] | Compound | EC50 ([4]; SW480, 24 h) [nM]
1 | 929 | 17.9 | 52.3 | 970 | – | – | O=C(CC[S+]([O-])c1nc2ccccc2c(=O)[nH]1)N[C@H]1CC[C@H](c2nnc(-c3ccccc3)o2)CC1 (some centres unmarked) [Example 143, 3-((4-oxo-3,4-dihydroquinazolin-2-yl)sulfinyl)-N-((1r,4r)-4-(5-phenyl-1,3,4-oxadiazol-2-yl)cyclohexyl)propanamide] | –
2 | 1.2 | 0.107 | 4.98 | 3.34 | 3280 | – | O=C(CCSc1nc2ccccc2c(=O)[nH]1)N[C@H]1CC[C@H](c2nnc(-c3cccc(Cl)c3)o2)CC1 [Example 118, N-((1r,4r)-4-(5-(3-chlorophenyl)-1,3,4-oxadiazol-2-yl)cyclohexyl)-3-((4-oxo-3,4-dihydroquinazolin-2-yl)thio)propanamide] | –
3 | 741 | 217 | 99.8 | 1820 | 4680 | – | N#Cc1cccc(-c2nnc([C@H]3CC[C@H](NC(=O)CCc4nc5ccccc5c(=O)[nH]4)CC3)o2)c1 [Example 137, N-((1r,4r)-4-(5-(3-cyanophenyl)-1,3,4-oxadiazol-2-yl)cyclohexyl)-3-(4-oxo-3,4-dihydroquinazolin-2-yl)propanamide] | –
4 | 142 | 66.6 | 22.5 | 1390 | 3220 | – | O=c1[nH]c(CCNC(=O)[C@H]2CC[C@H](c3nnc(-c4ccccc4)o3)CC2)nc2ccccc12 [Example 1, trans-N-(2-(4-oxo-3,4-dihydro-2-quinazolinyl)ethyl)-4-(5-phenyl-1,3,4-oxadiazol-2-yl)cyclohexanecarboxamide] | –
5 | 3 | 0.194 | 3.34 | 5.72 | – | – | O=C(CCSc1nc2ccccc2c(=O)[nH]1)N[C@H]1CC[C@H](c2nnc(-c3cccc(F)c3)o2)CC1 [Example 119, N-((1r,4r)-4-(5-(3-fluorophenyl)-1,3,4-oxadiazol-2-yl)cyclohexyl)-3-((4-oxo-3,4-dihydroquinazolin-2-yl)thio)propanamide] | –
6 | 7.84 | 0.127 | 0.796 | 3.42 | 720 | – | O=C(CCSc1nc2ccccc2c(=O)[nH]1)N[C@H]1CC[C@H](n2c(=O)[nH]c3cc(Cl)ccc32)CC1 [Example 90, N-((1r,4r)-4-(5-chloro-2-oxo-2,3-dihydro-1H-benzo[d]imidazol-1-yl)cyclohexyl)-3-((4-oxo-3,4-dihydroquinazolin-2-yl)thio)propanamide] | –
7 | 1.93 | 1.52 | 0.179 | 1.68 | – | – | O=C(CCSc1nc2ccccc2c(=O)[nH]1)N[C@H]1CC[C@H](c2nnc(-c3ccc(Cl)cc3)o2)CC1 [Example 125, N-((1r,4r)-4-(5-(4-chlorophenyl)-1,3,4-oxadiazol-2-yl)cyclohexyl)-3-((4-oxo-3,4-dihydroquinazolin-2-yl)thio)propanamide] | –
8 | 138 | 0.129 | 9.92 | 198 | 2280 | – | N#Cc1ccc2c(c1)[nH]c(=O)n2[C@H]1CC[C@H](NC(=O)CSc2nc3ccccc3c(=O)[nH]2)CC1 [Example 103, N-((1r,4r)-4-(5-cyano-2-oxo-2,3-dihydro-1H-benzo[d]imidazol-1-yl)cyclohexyl)-2-((4-oxo-3,4-dihydroquinazolin-2-yl)thio)acetamide] | –
9 | 32.6 | 1.01 | 0.347 | 207 | 279 | – | O=C(CCc1nc2ccccc2c(=O)[nH]1)N[C@H]1CC[C@H](n2c(=O)[nH]c3ccc(Cl)cc32)CC1 [Example 86, N-((1r,4r)-4-(6-chloro-2-oxo-2,3-dihydro-1H-benzo[d]imidazol-1-yl)cyclohexyl)-3-(4-oxo-3,4-dihydroquinazolin-2-yl)propanamide] | –
10 | – | 0.405 | 0.389 | – | 1900 | – | O=C(CCSc1nc2ccccc2c(=O)[nH]1)N[C@H]1C[C@@H](c2nnc(-c3ccccc3)o2)C1 [Example 39, 3-((4-oxo-3,4-dihydroquinazolin-2-yl)thio)-N-((1s,3s)-3-(5-phenyl-1,3,4-oxadiazol-2-yl)cyclobutyl)propanamide] | –
11 | 2340 | 73.7 | 52.5 | 4630 | 1020 | – | Cn1c(=O)n(C2CCN(C(=O)CCCc3nc4ccccc4c(=O)[nH]3)CC2)c2ccc(Cl)cc21 [Example 45, 2-(4-(4-(5-chloro-3-methyl-2-oxo-2,3-dihydro-1H-benzimidazol-1-yl)-1-piperidinyl)-4-oxobutyl)-4(3H)-quinazolinone] | –
12 | 19.7 | 0.277 | 0.196 | 10.8 | 923 | – | O=C(CCCc1nc2ccccc2c(=O)[nH]1)N[C@H]1CC[C@H](c2nnc(-c3ccc(F)c(Cl)c3)o2)CC1 [Example 35, N-(trans-4-(5-(3-chloro-4-fluorophenyl)-1,3,4-oxadiazol-2-yl)cyclohexyl)-4-(4-oxo-3,4-dihydro-2-quinazolinyl)butanamide 2,2,2-trifluoroacetate] | –
13 | – | 1210 | – | – | 1290 | 7450 | CC(C)(c1ccccc1)c1nnc([C@H]2CC[C@H](NC(=O)CCc3nc4ccccc4c(=O)[nH]3)CC2)o1 [Example 140, 3-(4-oxo-3,4-dihydroquinazolin-2-yl)-N-((1r,4r)-4-(5-(2-phenylpropan-2-yl)-1,3,4-oxadiazol-2-yl)cyclohexyl)propanamide] | –
14 | 2.03 | 0.0647 | 5.35 | 2.33 | 3730 | – | COc1cccc(-c2nnc([C@H]3CC[C@H](NC(=O)CCSc4nc5ccccc5c(=O)[nH]4)CC3)o2)c1 [Example 120, N-((1r,4r)-4-(5-(3-methoxyphenyl)-1,3,4-oxadiazol-2-yl)cyclohexyl)-3-((4-oxo-3,4-dihydroquinazolin-2-yl)thio)propanamide] | –
15 | – | 0.0891 | – | – | 3970 | – | O=C(CCSc1nc2ccccc2c(=O)[nH]1)N[C@H]1C[C@H](c2nnc(-c3ccccc3)o2)C1 [Example 40, 3-((4-oxo-3,4-dihydroquinazolin-2-yl)thio)-N-((1r,3r)-3-(5-phenyl-1,3,4-oxadiazol-2-yl)cyclobutyl)propanamide] | –
16 | 1.23 | 0.269 | 3.98 | 2.78 | – | – | O=C(CCSc1nc2ccccc2c(=O)[nH]1)N[C@H]1CC[C@H](c2nnc(-c3ccc(F)cc3)o2)CC1 [Example 117, N-((1r,4r)-4-(5-(4-fluorophenyl)-1,3,4-oxadiazol-2-yl)cyclohexyl)-3-((4-oxo-3,4-dihydroquinazolin-2-yl)thio)propanamide] | –
17 | 433 | 1.44 | 0.671 | 1780 | 1030 | – | O=C(CCc1nc2ccccc2c(=O)[nH]1)N[C@H]1CC[C@H](n2c(=O)[nH]c3ccccc32)CC1 [Example 84, N-(trans-4-(2-oxo-2,3-dihydro-1H-benzo[d]imidazol-1-yl)cyclohexyl)-3-(4-oxo-3,4-dihydroquinazolin-2-yl)propanamide] | –

Row | Compound | IC50 [1] [nM] | IC50 [2] [nM] | IC50 [3] [nM] | EC50 ([4]; SW480 cells, 24 hours) [nM] | IC50 (PARP2) [nM] | IC50 (PARP1) [nM] | EC50 ([4]; SW480, 24 h) [nM]
18 | O=C(CCCc1nc2ccccc2c(=O)[nH]1)N1CCC(n2cc(-c3ccccc3)[nH]c2=O)CC1 [Example 49, 2-(4-oxo-4-(4-(2-oxo-4-phenyl-2,3-dihydro-1H-imidazol-1-yl)-1-piperidinyl)butyl)-4(3H)-quinazolinone trifluoroacetic acid] | 530 | 118 | – | – | – | – | 5330
